Here are results for one compound from ChEMBL document CHEMBL5500404, “Discovery and Development of NLRP3 Inhibitors Targeting the LRR Domain to Disrupt NLRP3-NEK7 Interaction for the Treatment of Rheumatoid Arthritis” (J Med Chem, 2024).

Series [1] is described as follows: Half life in Sprague-Dawley rat at 20 mg/kg, ip measured upto 720 mins by LC-MS/MS analysis. In kind it is ADME, organism-based. To be noted: in vivo.
The nature of series [2]: Tmax in Sprague-Dawley rat at 20 mg/kg, IG measured upto 1440 mins by LC-MS/MS analysis. To be noted: in vivo, po. In kind it is ADME, organism-based.
The test system of series [3] is Rattus norvegicus. Kind of series: Anti-inflammatory activity against complete Freund's adjuvant (CFA)-induced arthritis rat model assessed as decrease in spleen index at 20 to 80 mg/kg, ip treated after 17 days of CFA challenge measured after 18 days (day 17 to 34) relative to model group. The series is classed as functional, organism-based. Particulars: dose 20-80 mg/kg, time 18.0 day.

The test system of series [4] is THP-M. The experiment in a line: Effect on ASC (apoptosis-related speck-like protein containing a CARD) level in LPS/nigericin-induced human THP-M cells assessed as inhibition of pro-IL-1beta level at 20 to 60 uM pretreated for 24 hrs followed by stimulated with LPS for 3 hrs and ATP for 1 hr by Western blot analysis relative to control. In kind it is functional, cell-based. Particulars: dose 20-60 µM, time 28.0 hrs. For orientation: A western blot detects proteins with antibodies after separation by electrophoresis.

Series [5] in a line: Half life in Sprague-Dawley rat at 20 mg/kg, IG measured upto 1440 mins by LC-MS/MS analysis. The series is classed as ADME, organism-based. Particulars: in vivo, po.
The test system of series [6] is THP-M. Kind of series: Induction of mitochondrial membrane potential loss in human THP-M cells pretreated for 24 hrs followed by stimulated with LPS for 3 hrs and ATP for 1 hr by Mitochondrial damage experiment. In kind it is functional, cell-based. To be noted: time 28.0 hrs.
The test system of series [7] is Rattus norvegicus. The experiment in a line: Anti-inflammatory activity against complete Freund's adjuvant (CFA)-induced arthritis rat model assessed as reduction in IL-1beta in rat synovium from the left rear ankle at 20 to 80 mg/kg, ip treated after 17 days of CFA challenge measured after 18 days (day 17 to 34) by immunohistochemistry based assay relative to model group. In kind it is functional, organism-based. Particulars: dose 20-80 mg/kg, time 18.0 day.

A short description of series [8]: MRT (0 to t) in Sprague-Dawley rat at 20 mg/kg, ip measured upto 720 mins by LC-MS/MS analysis. The series is classed as ADME, organism-based. Particulars: in vivo.
In series [9] the test system is Rattus norvegicus. Kind of series: Anti-inflammatory activity against complete Freund's adjuvant (CFA)-induced arthritis rat model assessed as decrease in thymus index at 20 to 80 mg/kg, ip treated after 17 days of CFA challenge measured after 18 days (day 17 to 34) relative to model group. To be noted: dose 20-80 mg/kg, time 18.0 day. In kind it is functional, organism-based.

In series [10] the target is T1, Interferon-inducible protein AIM2 (Homo sapiens) (UniProt O14862).
T1 sequence (whole entry): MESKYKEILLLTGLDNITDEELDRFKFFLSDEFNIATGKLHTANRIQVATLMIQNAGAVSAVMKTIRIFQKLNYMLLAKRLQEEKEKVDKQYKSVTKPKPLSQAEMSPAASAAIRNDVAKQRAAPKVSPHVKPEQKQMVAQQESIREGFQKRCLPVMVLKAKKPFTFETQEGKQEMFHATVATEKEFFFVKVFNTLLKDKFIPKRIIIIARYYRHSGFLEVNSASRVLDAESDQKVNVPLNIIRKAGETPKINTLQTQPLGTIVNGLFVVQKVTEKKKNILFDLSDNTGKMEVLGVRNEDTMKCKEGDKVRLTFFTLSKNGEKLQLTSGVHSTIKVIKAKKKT
The experiment in a line: Inhibition of AIM2 inflammasome in poly(DA:DT)-induced human THP-M cells assessed as inhibition of IL-1beta level at 20 to 60 uM pretreated for 24 hrs followed by stimulated with LPS by ELISA. Particulars: dose 20-60 µM. In kind it is cell-based. Background: In an ELISA, binding on a coated surface is turned into a signal by an enzyme label.

For series [11], the target named is T2, NACHT, LRR and PYD domains-containing protein 1 (Homo sapiens) (UniProt Q9C000).
T2 sequence (whole entry): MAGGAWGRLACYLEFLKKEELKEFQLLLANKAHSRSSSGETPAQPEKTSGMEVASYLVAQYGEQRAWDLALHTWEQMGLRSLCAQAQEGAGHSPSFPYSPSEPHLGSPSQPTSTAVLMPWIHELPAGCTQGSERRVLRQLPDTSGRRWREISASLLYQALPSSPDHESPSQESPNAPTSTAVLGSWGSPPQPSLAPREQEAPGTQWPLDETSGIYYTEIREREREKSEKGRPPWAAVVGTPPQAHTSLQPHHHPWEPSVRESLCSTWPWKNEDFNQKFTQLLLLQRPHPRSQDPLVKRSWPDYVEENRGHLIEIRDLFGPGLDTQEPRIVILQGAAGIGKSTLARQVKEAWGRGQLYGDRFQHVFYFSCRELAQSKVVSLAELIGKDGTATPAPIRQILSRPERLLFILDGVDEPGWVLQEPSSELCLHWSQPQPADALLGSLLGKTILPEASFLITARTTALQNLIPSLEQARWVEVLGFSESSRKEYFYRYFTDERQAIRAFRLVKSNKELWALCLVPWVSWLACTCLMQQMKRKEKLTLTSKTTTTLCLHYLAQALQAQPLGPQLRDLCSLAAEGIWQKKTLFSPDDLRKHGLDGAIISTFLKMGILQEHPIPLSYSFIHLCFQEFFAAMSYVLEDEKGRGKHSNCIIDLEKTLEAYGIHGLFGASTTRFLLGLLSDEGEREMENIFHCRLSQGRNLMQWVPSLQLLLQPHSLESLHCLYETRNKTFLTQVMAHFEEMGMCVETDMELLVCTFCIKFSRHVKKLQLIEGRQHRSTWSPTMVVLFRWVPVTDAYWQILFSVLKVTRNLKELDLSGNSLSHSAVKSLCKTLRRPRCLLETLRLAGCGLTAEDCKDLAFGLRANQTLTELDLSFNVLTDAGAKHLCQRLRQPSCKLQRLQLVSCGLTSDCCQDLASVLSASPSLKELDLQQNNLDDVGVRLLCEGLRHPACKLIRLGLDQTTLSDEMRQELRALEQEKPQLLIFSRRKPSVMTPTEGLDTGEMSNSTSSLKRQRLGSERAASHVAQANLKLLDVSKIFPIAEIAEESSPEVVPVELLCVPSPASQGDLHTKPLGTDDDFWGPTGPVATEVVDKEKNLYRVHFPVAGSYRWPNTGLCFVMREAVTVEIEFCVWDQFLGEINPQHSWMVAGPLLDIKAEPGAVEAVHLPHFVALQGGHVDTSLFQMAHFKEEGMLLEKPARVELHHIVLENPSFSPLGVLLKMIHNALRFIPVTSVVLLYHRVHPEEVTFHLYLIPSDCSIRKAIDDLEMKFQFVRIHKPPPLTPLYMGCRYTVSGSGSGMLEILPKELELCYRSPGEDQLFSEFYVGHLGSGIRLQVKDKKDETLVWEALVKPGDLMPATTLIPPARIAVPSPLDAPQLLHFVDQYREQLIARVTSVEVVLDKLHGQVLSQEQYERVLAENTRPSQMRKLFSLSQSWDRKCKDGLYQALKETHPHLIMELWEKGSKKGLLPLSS
Kind of series: Inhibition of NLRP1 inflammasome in Val-boroPro-induced human THP-M cells assessed as inhibition of IL-1beta level at 20 to 60 uM pretreated for 24 hrs followed by stimulated with LPS by ELISA. In kind it is cell-based. Particulars: dose 20-60 µM.

A short description of series [12]: AUC (0 to t) in Sprague-Dawley rat at 20 mg/kg, IG measured upto 1440 mins by LC-MS/MS analysis. The series is classed as ADME, organism-based. Particulars: in vivo, po.
In series [13] the test system is Rattus norvegicus. The experiment in a line: Anti-inflammatory activity against complete Freund's adjuvant (CFA)-induced arthritis rat model assessed as decrease in thymus size at 20 to 80 mg/kg, ip treated after 17 days of CFA challenge measured after 18 days (day 17 to 34) relative to model group. In kind it is functional, organism-based. To be noted: dose 20-80 mg/kg, time 18.0 day.

Calls of active or inactive are those of the source.

In the case of `COCCCNC(=O)c1ccc(Cn2c(SCC3CCCCC3)nc3ccncc32)cc1`, the results for the half-life in series [1] and in series [5] were 44.1 min and 128 min, respectively. The Tmax in series [2] is 16.7 min. Further, the outcome with Rattus norvegicus [3], with Rattus norvegicus [7], in the series on Rattus norvegicus [9] and in the series on Rattus norvegicus [13] was Active. For the same compound, the inhibition entry (in the series on THP-M [4]; in series [10]; in series [11]) was “inactive” in each case. The outcome in the series with THP-M [6] was inactive. For the same compound, the MRT last at 12 h in series [8] was 41.9 min. The AUC(0-t) at 24 h in [12] is 0.837 µg·h/mL.

A word on the half-life: it is the time needed for the level to fall by half in the phase considered. Low readings indicate rapid decline, high ones slow decline. As usually defined, the Tmax is the time at which the peak concentration occurs. What is called MRT last is a mean duration of stay, worked out from the concentration-time curve. The term AUC(0-t) denotes exposure summed from dosing to a finite time, without extrapolation to infinity. Read a low AUC(0-t) as less exposure.
